Experimental data from patent EP0632029A1, “Benzylidene hydantoin derivative, ultraviolet ray absorbent and external preparation for skin including the same” (SHISEIDO COMPANY LIMITED, priority 1993, dated 1995).

How the values were obtained:
Assay type in all cases: physicochemical
[1] = Reaction with metal ion (colour change after FeCl₃); settings: for color of the solution BEFORE ADDING FeCl₃: 0.1g in 10 ml of 99.5% ethyl alcohol; for color change of the solution AFTER ADDING FeCl₃: 0.1g in 10 ml of 99.5% ethyl alcohol plus 2 ml of 0.02% FeCl₃
Method: Reactivities with trivalent iron ion of the following compounds 1 to 3 as examples of the benzylidene hydantoin derivative and 2-hydroxy-4-methoxybenzophenone (comparison 1) and 2-hydroxy-5-methylphenylbenzotriazol (comparison 2) were tested. (Method)
0.1g of each compounds were dissolved in 10 ml of 99.5% ethyl alcohol and added 2 ml of 0.02% FeCl₃ (99.5% ethyl alcohol solution), respectively. After stirring, color change of the solution were observed.

Solubility = experiment: Solubility
[2] = Ultraviolet ray absorption, 10ppm in ethanol, spectrophotometer; settings: 10ppm in ethanol (99.5%), quartz cell 10mm
Method: Ultraviolet ray absorptivities of the compound 1, 3 and comparison (2-hydroxy-4-methoxybenzophenone; UV-A absorbent) were measured according to the following method.
The compound 1, 3 and the comparison compound were dissolved in ethanol (99.5%) so as to the concentration be 10ppm, and absorption were measured by using quartz cell (10mm×10mm) and the spectrophotometer UVIDEC-610 (JASCO CORPORATION).

[3] = UV absorption maximum in ethanol (characterisation of the examples); settings: for ε: at λmax

SMILES	color of the solution BEFORE ADDING FeCl₃ [1]	color change of the solution AFTER ADDING FeCl₃ [1]	Solubility (Solubility; CETYL-2-ETHYLHEXANOATE) [%]	Solubility (Solubility; ETHANOL(99.5%)) [%]	Solubility (Solubility; OLIVE OIL) [%]	absorption ([2]; WAVELENGTH 300 nm)	absorption ([2]; WAVELENGTH 310 nm)	absorption ([2]; WAVELENGTH 320 nm)	absorption ([2]; WAVELENGTH 330 nm)	absorption ([2]; WAVELENGTH 340 nm)	absorption ([2]; WAVELENGTH 350 nm)	absorption ([2]; WAVELENGTH 360 nm)	absorption ([2]; WAVELENGTH 370 nm)	absorption ([2]; WAVELENGTH 380 nm)	λmax (ethanol) [3] [nm]	ε [3]
CCCCCCCCN1C(=O)NC(=Cc2ccc(OC)cc2)C1=O [COM. 1, 5-(4-methoxybenzylidene)-3-n-octyl hydantoin, reference compound]	LIGHT YELLOW	BROWNING	0.2	0.65	0.4											
COc1ccc(C(=O)c2ccccc2)c(O)c1 [COMPARISON, 2-hydroxy-4-methoxybenzophenone, reference compound]						0.39	0.35	0.40	0.42	0.34	0.20	0.11	0.03	0.00		
CCCCC(CC)CN1C(=O)NC(=Cc2ccc(OC)cc2)C1=O (centres unmarked) [COMPOUND 1, 5-(4-METHOXYBENZYLIDENE)-3-(2-ETHYLHEXYL) HYDANTOIN]	COLORLESS OR LIGHT YELLOW	NO CHANGE	2.1	1.2	3.2	0.36	0.53	0.74	0.95	0.94	0.80	0.40	0.10	0.02	334	32,000
CCCCC(CC)COc1ccc(C=C2NC(=O)N(CC(CC)CCCC)C2=O)cc1 (centres unmarked) [COMPOUND 3, 5-[4-(2-ETHYLHEXYLOXY)BENZYLIDENE]-3-(2-ETHYLEXYL) HYDANTOIN]	COLORLESS OR LIGHT YELLOW	NO CHANGE	4	1.4	7	0.24	0.39	0.55	0.73	0.76	0.68	0.40	0.14	0.03	336	32,500
COc1ccc(C=C2NC(=O)N(CCCCCCCCCCCCCCCC(C)C)C2=O)cc1 [compound 2, 5-(4-METHOXYBENZYLIDENE)-3-[…]]	COLORLESS OR LIGHT YELLOW	NO CHANGE	14	4.0	17										334	31,500
